Data published in patent US10464929B2, “Organic molecules for terahertz tagging applications” (Council of Scientific & Industrial Research, priority 2014, dated 2019).

Assay: Solubility of the THz molecular tags in various solvents
Assay type: physicochemical

Row | Structure (SMILES) | Solubility in THF (solvent THF (tetrahydrofuran)) | Solubility in Diethyl Ether (solvent Diethyl Ether) | Solubility in Toluene (solvent Toluene)
1 | O=C(NCCNC(=O)Nc1ccccc1)Nc1ccccc1 [PhU—C2—UPh, 1,1′-(ethane-1,2-diyl)bis(3-phenylurea)] | Turbid | – | –
2 | O=C(Nc1ccccc1)Nc1cccc(NC(=O)c2ccccc2)n1 [PhU—Ph—AP, N-(6-(3-phenylureido)pyridin-2-yl)benzamide] | – | Turbid | Turbid
